Reference: BindingDB's records for PubMed 8930187 (Leiden University, 1996)

Target: Gamma-aminobutyric acid receptor subunit alpha-1 (Rattus norvegicus, UniProt P62813)
Sequence (P62813 whole entry): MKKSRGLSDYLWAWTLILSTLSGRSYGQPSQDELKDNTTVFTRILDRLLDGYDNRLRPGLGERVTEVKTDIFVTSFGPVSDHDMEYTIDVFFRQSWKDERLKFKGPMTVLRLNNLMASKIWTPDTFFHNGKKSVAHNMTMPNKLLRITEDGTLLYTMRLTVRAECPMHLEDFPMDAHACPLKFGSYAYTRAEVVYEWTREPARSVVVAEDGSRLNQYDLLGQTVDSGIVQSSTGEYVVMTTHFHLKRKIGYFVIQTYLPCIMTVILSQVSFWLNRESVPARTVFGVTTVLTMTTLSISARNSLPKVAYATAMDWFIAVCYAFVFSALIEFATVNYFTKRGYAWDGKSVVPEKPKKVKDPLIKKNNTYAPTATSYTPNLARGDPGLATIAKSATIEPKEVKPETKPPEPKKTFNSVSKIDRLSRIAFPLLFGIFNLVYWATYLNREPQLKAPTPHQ

Compound | Ki [nM]
O=C1CN=C(c2ccccc2Cl)c2cc([N+](=O)[O-])ccc2N1 [5-(2-chlorophenyl)-7-nitro-1,3-dihydro-2H-1,4-benzodiazepin-2-one] | 27
Cc1ncc2n1-c1ccc(Cl)cc1C(c1ccccc1F)=NC2 [12-chloro-9-(2-fluorophenyl)-3-methyl-2,4,8-triazatricyclo[8.4.0.0^{2,6}]tetradeca-1(10),3,5,8,11,13-hexaene] | 26
CN1C(=O)CN=C(c2ccccc2F)c2cc([N+](=O)[O-])ccc21 [Flunitrazepam] | 29
O=C1Nc2ccc(Cl)cc2C(c2ccccc2)=NC1O (centres undefined) [CAS_604-75-1] | 350
